Like-named read-outs stand apart in the source and are kept apart here. Where only a bound is given, the exact number is not on record here.

The assay has as its system Myc. Description: Myc inhibition assay: Myc expression per cell by anti-Myc immunofluorescence, high-content imaging. It counts as cell-based, human (patient-derived medulloblastoma xenograft cells). The settings on record: medulloblastoma PDX cells, 4 h. Summed up:
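Cells from Myc-driven medulloblastoma patient-derived orthotopic xenografts, propagated only in NSG mouse cerebellum, were dissociated and plated in serum-free medium. After overnight recovery, compounds were applied for 4 hours; cells were then fixed, stained for Myc and DAPI, and per-cell Myc quantified by high-content imaging to derive IC50.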
On the technique in general: A xenograft is tissue or cells of one species grown in another, often human tumour cells in immunodeficient mice.

The mark [1] stands for this setting: Table 1, read-out: IC50 (Myc inhibition).
The mark [2] stands for this setting: Table 2, read-out: MYC Inhibition IC50.

Broadly, the IC50 is the concentration that gives 50% inhibition. For `FC(F)(F)c1cccc(Nc2nccc(-c3ccc4nccn4c3)n2)c1` [Compound 127, 4-(Imidazo[1,2-a]pyridin-6-yl)-N-(3-(trifluoromethyl)phenyl)pyrimidin-2-amine], the IC50 lay within 200 to 1000 nM under setting [1] and 200 to 1000 nM under setting [2].

Turning to `Fc1cccc(Nc2nccc(-c3ccc4ocnc4c3)n2)c1` [Compound 271, 4-(benzo[d]oxazol-5-yl)-N-(3-fluorophenyl)pyrimidin-2-amine], the IC50 was 1000 to 10000 nM under setting [1] and 1000 to 10000 nM under setting [2].

In the case of `COc1cccc(-c2ccnc(Nc3ccccc3OC)n2)c1` [Compound 248, N-(2-methoxyphenyl)-4-(3-methoxyphenyl)pyrimidin-2-amine], the IC50 lay in the range of 10000 to 100000 nM under setting [1] and 10000 to 100000 nM under setting [2].

Consider `Fc1cccc(Nc2nccc(-c3ccc4[nH]nnc4c3)n2)c1` [Compound 138, 4-(1H-benzo[d][1,2,3]triazol-5-yl)-N-(3-fluorophenyl)pyrimidin-2-amine], for which the IC50 runs as follows: under setting [1], 1000 to 10000 nM; under setting [2], 1000 to 10000 nM.

With `CN(C)C(=O)c1cccc(Nc2nccc(-c3ccc4[nH]cnc4c3)n2)c1` [Compound 18, 3-((4-(1H-benzo[d]imidazol-5-yl)pyrimidin-2-yl)amino)-N,N-dimethylbenzamide], the IC50 is, setting by setting: under setting [1], 1000 to 10000 nM; under setting [2], 1000 to 10000 nM.

Regarding `CN(c1cccc(C(F)(F)F)c1)c1nccc(-c2ccnc(O)c2)n1` [Compound 220, 4-(2-(methyl (3-(trifluoromethyl)phenyl)amino)pyrimidin-4-yl)pyridin-2-ol], the half-maximal inhibitory concentration (IC50) is, setting by setting: under setting [1], 10000 to 100000 nM; under setting [2], 10000 to 100000 nM.

Regarding `CCc1cccc(Nc2nccc(-c3cnc4nc[nH]c4c3)n2)c1` [Compound 140, N-(3-ethylphenyl)-4-(1H-imidazo[4,5-b]pyridin-6-yl)pyrimidin-2-amine], the half-maximal inhibitory concentration (IC50) runs as follows: under setting [1], < 200 nM; under setting [2], < 200 nM.

For `Cc1ccccc1Nc1nccc(-c2ccc3[nH]cnc3c2)n1` [Compound 51, 4-(1H-benzo[d]imidazol-5-yl)-N-(o-tolyl)pyrimidin-2-amine], the IC50 under setting [1] was in the range of 1000 to 10000 nM and the IC50 under setting [2] lay within 1000 to 10000 nM.

Regarding `CNC(=O)c1cccc(Nc2nccc(-c3ccc4[nH]cnc4c3)n2)c1` [Compound 42, 3-((4-(1H-benzo[d]imidazol-5-yl)pyrimidin-2-yl)amino)-N-methylbenzamide], the IC50 is 200 to 1000 nM under setting [1] and 200 to 1000 nM under setting [2].

With `Cc1cc(F)cc(Nc2nccc(-c3ccc4[nH]cnc4c3)n2)c1` [Compound 13, 4-(1H-benzo[d]imidazol-5-yl)-N-(3-fluoro-5-methylphenyl)pyrimidin-2-amine], the IC50 was < 200 nM under setting [1] and < 200 nM under setting [2].

Consider `FC(F)(F)c1cccc(Nc2nccc(-c3cnc4cc[nH]c4c3)n2)c1` [Compound 132, 4-(1H-pyrrolo[3,2-b]pyridin-6-yl)-N-(3-(trifluoromethyl)phenyl)pyrimidin-2-amine], for which the IC50 under setting [1] was in the range of 200 to 1000 nM and the half-inhibitory concentration (IC50) under setting [2] lay in the range of 200 to 1000 nM.

In the case of `c1csc(Nc2nccc(-c3ccc4[nH]cnc4c3)n2)c1` [Compound 84, 4-(1H-benzo[d]imidazol-5-yl)-N-(thiophen-2-yl)pyrimidin-2-amine], the 50% inhibitory concentration (IC50) lay in the range of 1000 to 10000 nM under setting [1] and 1000 to 10000 nM under setting [2].

In the case of `COc1cccc(-c2ccnc(Nc3ccccc3)n2)n1` [Compound 236, 4-(6-methoxypyridin-2-yl)-N-phenylpyrimidin-2-amine], the IC50 reads like this: under setting [1], 10000 to 100000 nM; under setting [2], 10000 to 100000 nM.

Turning to `COc1cc(-c2ccnc(Nc3ccccc3)n2)ccn1` [Compound 252, 4-(2-methoxypyridin-4-yl)-N-phenylpyrimidin-2-amine], the IC50 reads like this: under setting [1], 10000 to 100000 nM; under setting [2], 10000 to 100000 nM.

With `c1cc(Nc2nccc(-c3ccc4[nH]cnc4c3)n2)cc(-c2ccncc2)c1` [Compound 43, 4-(1H-benzo[d]imidazol-5-yl)-N-(3-(pyridin-4-yl)phenyl)pyrimidin-2-amine], the concentration for half-maximal inhibition (IC50) is < 200 nM under setting [1] and < 200 nM under setting [2].

With `COc1cccc(Nc2nccc(-c3ccnc(OC)c3)n2)c1` [Compound 192, N-(3-methoxyphenyl)-4-(2-methoxypyridin-4-yl)pyrimidin-2-amine], the 50% inhibitory concentration (IC50) reads like this: under setting [1], 1000 to 10000 nM; under setting [2], 1000 to 10000 nM.

On to `COc1cc(-c2ccnc(Nc3cccc(F)c3)n2)ccn1` [Compound 243, N-(3-fluorophenyl)-4-(2-methoxypyridin-4-yl)pyrimidin-2-amine], for which the IC50 lay in the range of 1000 to 10000 nM under setting [1] and 1000 to 10000 nM under setting [2].

For the molecule `COc1cc(Nc2ccnc(Nc3cccc(F)c3)n2)ccn1` [Compound 122, N^2-(3-fluorophenyl)-N^4-(2-methoxypyridin-4-yl)pyrimidine-2,4-diamine], the IC50 lay within 1000 to 10000 nM under setting [1] and 1000 to 10000 nM under setting [2].

Take `Oc1ccc(-c2ccnc(Nc3ccccc3)n2)cn1` [Compound 238, 5-(2-(phenylamino)pyrimidin-4-yl)pyridin-2-ol]: the IC50 was 1000 to 10000 nM under setting [1] and 1000 to 10000 nM under setting [2].

On to `Fc1cccc(Nc2nccc(-c3cnc4nc[nH]c4c3)n2)c1` [Compound 151, N-(3-fluorophenyl)-4-(1H-imidazo[4,5-b]pyridin-6-yl)pyrimidin-2-amine], for which the IC50 is < 200 nM under setting [1] and < 200 nM under setting [2].

With `N#Cc1ccc(Nc2nccc(-c3ccc4[nH]cnc4c3)n2)cc1` [Compound 99, 4-((4-(1H-benzo[d]imidazol-5-yl)pyrimidin-2-yl)amino)benzonitrile], the 50% inhibitory concentration (IC50) is, setting by setting: under setting [1], 200 to 1000 nM; under setting [2], 200 to 1000 nM.

In the case of `COc1ccc(-c2ccnc(Nc3cccc(F)c3)n2)s1` [Compound 176, N-(3-fluorophenyl)-4-(5-methoxythiophen-2-yl)pyrimidin-2-amine], the IC50 under setting [1] was 1000 to 10000 nM and the half-maximal inhibitory concentration (IC50) under setting [2] is 1000 to 10000 nM.

With `COc1cc(-c2ccnc(Nc3cccc(C(N)=O)c3)n2)ccn1` [Compound 198, 3-((4-(2-methoxypyridin-4-yl)pyrimidin-2-yl)amino)benzamide], the IC50 under setting [1] was 1000 to 10000 nM and the half-maximal inhibitory concentration (IC50) under setting [2] was in the range of 1000 to 10000 nM.

`Fc1ccccc1Nc1nccc(-c2ccc3[nH]cnc3c2)n1` [Compound 66, 4-(1H-benzo[d]imidazol-5-yl)-N-(2-fluorophenyl)pyrimidin-2-amine]: the half-inhibitory concentration (IC50) under setting [1] lay in the range of 1000 to 10000 nM and the IC50 under setting [2] fell in the range of 1000 to 10000 nM.

With `NS(=O)(=O)c1cccc(Nc2nccc(-c3ccc4[nH]cnc4c3)n2)c1` [Compound 46, 3-((4-(1H-benzo[d]imidazol-5-yl)pyrimidin-2-yl)amino)benzenesulfonamide], the IC50 is, setting by setting: under setting [1], < 200 nM; under setting [2], < 200 nM.

Turning to `FC(F)(F)c1cc(Nc2nccc(-c3ccc4[nH]cnc4c3)n2)ccc1Cl` [Compound 89, 4-(1H-benzo[d]imidazol-5-yl)-N-(4-chloro-3-(trifluoromethyl)phenyl)pyrimidin-2-amine], the IC50 under setting [1] was 1000 to 10000 nM and the IC50 under setting [2] fell in the range of 1000 to 10000 nM.

For the molecule `CC(C)(C)c1cccc(Nc2nccc(-c3ccc4[nH]cnc4c3)n2)c1` [Compound 87, 4-(1H-benzo[d]imidazol-5-yl)-N-(3-(tert-butyl)phenyl)pyrimidin-2-amine], the 50% inhibitory concentration (IC50) runs as follows: under setting [1], 200 to 1000 nM; under setting [2], 200 to 1000 nM.

On to `CC(=O)Nc1cccc(Nc2nccc(-c3ccc4[nH]cnc4c3)n2)c1` [Compound 2, N-(3-((4-(1H-benzo[d]imidazol-5-yl)pyrimidin-2-yl)amino)phenyl)acetamide], for which the IC50 under setting [1] was in the range of 200 to 1000 nM and the half-maximal inhibitory concentration (IC50) under setting [2] lay within 200 to 1000 nM.

Regarding `FC(F)(F)c1cccc(Nc2nccc(-c3ccc4[nH]ccc4c3)n2)c1` [Compound 152, 4-(1H-indol-5-yl)-N-(3-(trifluoromethyl)phenyl)pyrimidin-2-amine], the IC50 was 1000 to 10000 nM under setting [1] and 1000 to 10000 nM under setting [2].

For the molecule `CCOC(=O)CCc1cccc(Nc2nccc(-c3ccc4nc[nH]c4c3)n2)c1` [Compound 272, ethyl 3-(3-((4-(1H-benzo[d]imidazol-6-yl)pyrimidin-2-yl)amino)phenyl)propanoate], the IC50 is, setting by setting: under setting [1], 200 to 1000 nM; under setting [2], 200 to 1000 nM.

On to `Oc1cc(-c2ccnc(Nc3ccccc3F)n2)ccn1` [Compound 207, 4-(2-((2-fluorophenyl)amino)pyrimidin-4-yl)pyridin-2-ol], for which the half-maximal inhibitory concentration (IC50) reads like this: under setting [1], 10000 to 100000 nM; under setting [2], 10000 to 100000 nM.

Turning to `Oc1cccc(-c2ccnc(Nc3ccccc3)n2)c1` [Compound 244, 3-(2-(phenylamino)pyrimidin-4-yl)phenol], the IC50 by setting is: under setting [1], 1000 to 10000 nM; under setting [2], 1000 to 10000 nM.

As to `c1ccc2cc(Nc3nccc(-c4ccc5[nH]cnc5c4)n3)ccc2c1` [Compound 55, 4-(1H-benzo[d]imidazol-5-yl)-N-(naphthalen-2-yl)pyrimidin-2-amine], the IC50 reads like this: under setting [1], 200 to 1000 nM; under setting [2], 200 to 1000 nM.

For `O=C(Nc1ccccc1)c1cccc(Nc2nccc(-c3ccc4[nH]cnc4c3)n2)c1` [Compound 263, 3-((4-(1H-benzo[d]imidazol-5-yl)pyrimidin-2-yl)amino)-N-phenylbenzamide], the 50% inhibitory concentration (IC50) was < 200 nM under setting [1] and < 200 nM under setting [2].

With `FC(F)(F)c1cccc(Nc2nccc(-c3ccc4scnc4c3)n2)c1` [Compound 76, 4-(benzo[d]thiazol-5-yl)-N-(3-(trifluoromethyl)phenyl)pyrimidin-2-amine], the IC50 by setting is: under setting [1], 1000 to 10000 nM; under setting [2], 1000 to 10000 nM.

In the case of `Cc1c(-c2ccnc(Nc3cccc(C(F)(F)F)c3)n2)ccc2[nH]cnc12` [Compound 125, 4-(4-methyl-1H-benzo[d]imidazol-5-yl)-N-(3-(trifluoromethyl)phenyl)pyrimidin-2-amine], the IC50 lay within 1000 to 10000 nM under setting [1] and 1000 to 10000 nM under setting [2].

As to `CS(=O)(=O)c1cccc(Nc2nccc(-c3ccc4[nH]cnc4c3)n2)c1` [Compound 27, 4-(1H-benzo[d]imidazol-5-yl)-N-(3-(methylsulfonyl)phenyl)pyrimidin-2-amine], the IC50 under setting [1] is < 200 nM and the half-inhibitory concentration (IC50) under setting [2] was < 200 nM.

As to `O=c1[nH]c2ccc(-c3ccnc(Nc4cccc(F)c4)n3)cc2[nH]1` [Compound 117, 5-(2-((3-fluorophenyl)amino)pyrimidin-4-yl)-1,3-dihydro-2H-benzo[d]imidazol-2-one], the IC50 is, setting by setting: under setting [1], 10000 to 100000 nM; under setting [2], 10000 to 100000 nM.

(Values after patent US20260356817A1, “AMINOPYRIMIDINE AND AMINOTRIAZINE DERIVATIVES AS MYC PROTEIN MODULATORS” (Sanford Burnham Prebys Medical Discovery Institute, priority 2022, published 2026).)
